# Test results reported in patent US8629251B2, “Specific detection and quantification of phosphatidic acid using an Arabidopsis trigalactosyldiacylglycerol-4 (TGD4) protein” (Board of Trustees of Michigan State University, priority 2008, dated 2014).
# Columns and labels:
# RafC (Raf-1 kinase) = settings: literature (ref. 11); cited from earlier work
# [1] = molecular target: T1, Arabidopsis TGD4, DsRED-ΔTGD4-His (hydrophobic region 287D-309F deleted, SEQ ID NO:133) (Arabidopsis thaliana, UniProt Q9M903, DEL287-309); experiment: Liposome association assay, DsRED-ΔTGD4-His; type: binding; settings: dioleoyl-PtdOH/dioleoyl-PtdCho liposomes, 0 to 80% PtdOH, FIG. 19B
# T1 construct: b369 deletes nt 859-924 (22 codons)
# T1 sequence (Q9M903 other isoform, or with tags, fused parts or gaps DEL287-309): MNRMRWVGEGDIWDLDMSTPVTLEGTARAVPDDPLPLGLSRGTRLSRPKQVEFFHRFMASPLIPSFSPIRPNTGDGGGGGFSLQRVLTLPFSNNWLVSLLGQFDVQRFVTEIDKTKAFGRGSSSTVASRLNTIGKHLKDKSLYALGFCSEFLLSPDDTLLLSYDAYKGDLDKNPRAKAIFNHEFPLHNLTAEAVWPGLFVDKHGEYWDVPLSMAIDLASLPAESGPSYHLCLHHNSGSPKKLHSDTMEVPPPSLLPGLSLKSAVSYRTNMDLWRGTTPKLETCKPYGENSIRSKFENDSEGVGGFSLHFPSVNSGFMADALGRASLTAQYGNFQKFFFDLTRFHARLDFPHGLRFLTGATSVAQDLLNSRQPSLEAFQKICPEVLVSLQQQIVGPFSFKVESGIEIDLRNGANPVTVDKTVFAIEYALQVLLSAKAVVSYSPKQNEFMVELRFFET
# Protocol: (§1) Liposome Association Assay:
# (§2) The liposome association assay was adapted from (Awai et al., 2006, Lu and Benning, 2009) with minor modifications. Dioleoyl-PtdCho and PtdOH with different acyl chain lengths and desaturation levels were used for making liposomes. In other liposomes 1-palmitoyl-2-(12-((7-nitro-2-1,3-benzoxadiazol-4-yl)amino)dodecanoyl)-sn-glycero-3-phosphate (NBD-PtdOH; Avanti, Alabaster, Ala.) was used. The lipids were mixed at indicated ratios to give a total lipid amount of 250 μg. The lipids were dried under a stream of nitrogen, resuspended in 0.5 ml TBS buffer with 0.2 M choline chloride and hydrated at 37° C. for 1 hour followed by vigorous vortexing for 2 minutes. The resulting multi-lamellar vesicles were centrifuged at 13,000×g for 10 minutes and then washed once with TBS buffer containing 0.2 M choline chloride. The liposomes were resuspended into 100 μl TBS buffer with 0.2 M choline chloride and incubated with 2 μg purified DsRED-TGD4-His protein and its derivatives. The protein liposome mixture was incubated on ice for 30 minutes followed by centrifugation at 13,000×g for 10 minutes and two washes with 500 μl TBS containing 0.2 M choline chloride. The resulting protein-liposome pellet was resuspended in 20 μl 2× Laemmli buffer (Laemmli, 1970) and processed by SDS-PAGE (Shapiro and Maizel, 1969).
# [2] = molecular target: T2, Arabidopsis TGD2, DsRed-TGD2C with deletion of the 25-mer minimal domain (DR-Δ25, residues 201-225 deleted) (Arabidopsis thaliana, UniProt Q9LTR2, DEL201-225); experiment: Liposome-association assay, minimal domain deletion DR-Δ25; type: binding
# T2 construct: made in house; host or cells: Escherichia coli BL21 (DE3)
# T2 sequence (Q9LTR2 other isoform, or with tags, fused parts or gaps DEL201-225): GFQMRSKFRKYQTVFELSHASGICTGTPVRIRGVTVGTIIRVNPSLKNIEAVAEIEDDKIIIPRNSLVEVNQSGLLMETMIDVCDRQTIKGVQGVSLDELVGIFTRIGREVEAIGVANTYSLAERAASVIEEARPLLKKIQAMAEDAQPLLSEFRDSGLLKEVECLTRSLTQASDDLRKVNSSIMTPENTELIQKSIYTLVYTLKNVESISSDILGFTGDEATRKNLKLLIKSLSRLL
# Protocol: (§3) The liposome association assay was performed as previously reported. (31). Briefly, lipids (dioleoyl-phosphatidylcholine, DOPC or dioleoyl-PA, DOPA) were incubated in TBS (50 mM Tris-HCl, pH 7; 0.1 M NaCl) at 37° C. for an hour followed by vigorous vortexing for 5 min. The liposomes were precipitated at 20,000 g and washed twice with ice-cold TBS.
# (§4) Liposomes (200 μg) were mixed with purified DsRed-TGD2 fusion protein and TBS to make a final 100 μL solution. The mixture was incubated at 30° C. for 30 min and washed twice with ice-cold TBS by centrifugation at 20,000 g at 4° C. The liposome pellet mixed with sample buffer was analyzed by SDS-PAGE (28). Immuno-detection of the His-tagged protein was accomplished using the above mentioned Penta-His antibody at 1:15,000 and the anti mouse antibody at 1:75,000 dilution.
# (§5) The protein band was visualized by chemiluminescent detection kit from Sigma. The autoradiography film was scanned, distinct protein bands were quantified using computer software Multi Gauge V3.0 (Fujifilm USA, Valhalla, N.Y.) and resulted data were plotted and analyzed by OriginPro8 (Origin lab corporation, Northampton, Mass.).
# [3] = molecular target: Arabidopsis TGD2, DsRed-TGD2C D2 (Δ221-225, SEQ ID NO:46) (Arabidopsis thaliana, UniProt Q9LTR2, DEL221-225); experiment: Liposome-association assay, TGD2C D2 (Δ221-225); type: binding; settings: FIG. 3C
# Sequence of Arabidopsis TGD2, DsRed-TGD2C D2 (Δ221-225, SEQ ID NO:46) (Q9LTR2 other isoform, or with tags, fused parts or gaps DEL221-225): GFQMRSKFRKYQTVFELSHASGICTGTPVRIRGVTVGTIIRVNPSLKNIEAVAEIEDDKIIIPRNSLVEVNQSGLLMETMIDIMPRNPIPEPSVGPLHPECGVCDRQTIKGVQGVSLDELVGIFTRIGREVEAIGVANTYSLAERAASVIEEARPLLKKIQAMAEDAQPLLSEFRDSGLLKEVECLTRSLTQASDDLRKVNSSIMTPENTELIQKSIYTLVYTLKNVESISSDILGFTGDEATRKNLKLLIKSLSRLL
# Protocol: as §3, §4, §5
# [4] = molecular target: T3, Arabidopsis TGD2, DsRed-TGD2C T8 (residues 201-225, SEQ ID NO:12) (Arabidopsis thaliana, UniProt Q9LTR2); experiment: Protein-lipid overlay assay, minimal domain; type: binding; settings: FIG. 4B; compared to DR-WT
# T3 sequence (Q9LTR2 201-225): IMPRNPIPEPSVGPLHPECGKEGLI
# Protocol: Membrane lipid strips were purchased from Echelon Biosciences (Salt Lake City, Utah). The strips were first blocked with 3% bovine serum albumin in TBST (10 mM Tris-HCl, pH 8.0, 150 mM NaCl, and 0.25% Tween-20) for two hours and incubated in 0.5 μg/mL DsRed-TGD2 fusion protein solution in the blocking buffer at 4° C. overnight. The strips were washed 10 min for 3 times with TBST the next day and soaked in 3% bovine serum albumin in TBST with a Penta-His mouse monoclonal antibody (Sigma-Aldrich, St. Louis, Mo.) at 1:2,000 dilution at 4° C. overnight. The strips were washed twice with TBST and soaked in 3% bovine serum albumin in TBST with horseradish peroxidase-conjugated anti mouse antibody (Bio-Rad, Hercules, Calif.) at 1:20,000 dilution for an hour at room temperature. Following washing with TBST for 1 hour, the protein was detected by using the chemiluminescent detection system (Sigma-Aldrich).
# [5] = molecular target: Arabidopsis TGD2, DsRed-TGD2C D1 (Δ221-250, SEQ ID NO:43) (Arabidopsis thaliana, UniProt Q9LTR2, DEL221-250); experiment: Liposome-association assay, TGD2C D1 (Δ221-250); type: binding; settings: FIG. 3C
# Sequence of Arabidopsis TGD2, DsRed-TGD2C D1 (Δ221-250, SEQ ID NO:43) (Q9LTR2 other isoform, or with tags, fused parts or gaps DEL221-250): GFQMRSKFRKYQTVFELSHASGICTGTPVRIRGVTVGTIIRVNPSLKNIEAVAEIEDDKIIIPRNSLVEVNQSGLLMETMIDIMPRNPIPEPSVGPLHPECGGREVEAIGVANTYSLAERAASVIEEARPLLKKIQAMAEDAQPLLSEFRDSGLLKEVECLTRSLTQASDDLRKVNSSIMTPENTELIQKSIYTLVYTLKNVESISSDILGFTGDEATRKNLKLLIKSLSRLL
# Protocol: as §3, §4, §5
# [6] = molecular target: T4, Arabidopsis TGD4, DsRED-TGD4-His, full-length TGD4 1-479 (SEQ ID NO: 132) (Arabidopsis thaliana, UniProt Q9M903); experiment: Liposome association assay, DsRED-TGD4-His; type: binding; settings: pH range of 6.4-7.8, FIG. 18E
# T4 sequence (Q9M903 1-479): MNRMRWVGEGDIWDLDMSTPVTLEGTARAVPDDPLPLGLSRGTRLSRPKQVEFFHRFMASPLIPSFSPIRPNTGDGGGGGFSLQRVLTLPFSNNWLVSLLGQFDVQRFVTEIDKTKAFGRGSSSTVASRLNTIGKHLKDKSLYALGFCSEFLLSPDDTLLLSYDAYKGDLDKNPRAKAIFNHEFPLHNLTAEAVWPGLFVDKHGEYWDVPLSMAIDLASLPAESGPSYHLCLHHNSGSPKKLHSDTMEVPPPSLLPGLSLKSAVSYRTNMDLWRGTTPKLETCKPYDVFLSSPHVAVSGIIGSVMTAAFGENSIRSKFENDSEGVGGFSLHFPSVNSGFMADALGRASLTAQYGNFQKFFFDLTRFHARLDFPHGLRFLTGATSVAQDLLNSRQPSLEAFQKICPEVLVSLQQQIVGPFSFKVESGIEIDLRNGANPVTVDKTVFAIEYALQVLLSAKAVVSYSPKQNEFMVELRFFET
# Protocol: as §1, §2
# [7] = tested on: DsRed protein (Discosoma sp. red fluorescent protein); experiment: Liposome-association assay, DsRed control; type: binding; settings: FIG. 3B
# Protocol: as §3, §4, §5
# [8] = mixed PA/PC liposomes, FIGS. 5E and 5F
structure (smiles),measurement,setting,value
"CCCCCCCC/C=C\CCCCCCCC(=O)OC[C@H](COP(=O)(O)O)OC(=O)CCCCCCC/C=C\CCCCCCCC [PA, phosphatidic acid]",RafC-PA association,RafC (Raf-1 kinase),20 mol % PA
same,PtdOH binding activity,[1],did not require the central hydrophobic region of TGD4
same,residual PA binding activity,[2]; PA liposomes,"retains residual binding activity, albeit with significantly lower affinity"
same,"Hill number, PA binding",[2]; [8],7.3
same,"Kd, PA binding",[2]; [8],53.47 mol %
same,PA binding,[3],decreased binding activity dramatically
same,PA binding on membrane strip,[4],"binds PA on the membrane strip, with apparent lower affinity"
same,PA binding,[5],did not seem to affect PA binding
same,effect of pH on PtdOH binding,[6],not affected
same,binding to PC or PA,[7],does not display binding
